Test results taken from ChEMBL document CHEMBL1158552, “Transkarbams as transdermal permeation enhancers: effects of ester position and ammonium carbamate formation” (Bioorg Med Chem Lett, 2010).

Legend:
[1] = Potentiation of theophylline transdermal permeation in pig ear skin by Franz diffusion cells method; assay type: ADME, cell-based, Sus scrofa; details: artificial membrane
[2] = Potentiation of theophylline transdermal permeation in pig ear skin at pH 7 by Franz diffusion cells method; assay type: ADME, Sus scrofa; details: artificial membrane

Row | Structure (SMILES) | Activity [1] | Activity [2]
1 | CCCCCCCCCCCCOC(=O)CCCCCN | Active | Not Active
2 | CCCCCCCCCCCCCCOC(=O)CCCN | Active | Not Active
3 | CCCCCCCCCCCOC(=O)CCCCCCN.Cl | Active | Active
4 | CCCCCCOC(=O)CCCCCCCCCCCN.Cl | – | Active
5 | CCCCCCCCCCCCCCCOC(=O)CCN.Cl | – | Active
6 | CCCCCCCCOC(=O)CCCCCCCCCN | Active | Not Active
7 | CCCCCCCCCCCOC(=O)CCCCCCN | Active | Not Active
8 | CCCCCCCCCCCCCOC(=O)CCCCN | Active | Not Active
9 | CCCCCCCCCCCCCCCOC(=O)CCN | Active | Not Active
10 | CCCCCCCCOC(=O)CCCCCCCCCN.Cl | – | Active
11 | CCCCCCCCCCCCCOC(=O)CCCCN.Cl | – | Active
12 | CCCCCCOC(=O)CCCCCCCCCCCN | Active | Not Active
13 | CCCCCCCCCCCCCCOC(=O)CCCN.Cl | – | Active
14 | CCCCCCCCCCOC(=O)CCCCCCCN | Active | Not Active
15 | CCCCCCCCCCCCOC(=O)CCCCCN.Cl | Active | Active
16 | CCCCCCCCCCOC(=O)CCCCCCCN.Cl | Active | Active
